Reference: US10525024B2, “Methods for rescuing phenobarbital-resistance of seizures by ANA-12 or ANA-12 in combination with CLP290” (THE JOHNS HOPKINS UNIVERSITY, priority 2014, dated 2020)
Where “and” joins values, the source holds several entries; their conditions need not be identical. Equal values may be shown once. Read-outs that look alike come from different tables or passages of the source.

How the values were obtained:
[1] = cited from earlier work
[2] = test system: CD1 mice with permanent unilateral carotid-ligation (acute ischemic seizures); assay: Video-EEG seizure burden after carotid ligation at P7, P10, P12 with PB and adjunct BTN (Example 2); type: in vivo, mouse; conditions: for effect of adjunct BTN on PB-efficacy: BTN 0.1-0.2 mg/kg IP 2 h post-ligation; for reduction of seizure burden: PB 25 mg/kg IP 1 h after ligation
Description: Experimental design. […] All surgery was performed under isoflurane general anesthesia, and all efforts were made to minimize suffering. All litters of CD1 mice were purchased from Charles River Laboratories Inc. (Wilmington, Mass.). Newly born litters of pups arrived at postnatal 3 or 4 days old, and were allowed to acclimate. […] Ninety two pups from 12 litters were included in the video-EEG study (n=48 male and n=44 female). The susceptibility to ischemic seizures was tested at 3 developmental ages i.e., 7, 10 and 12 days old CD1 pups (n=80 ligated and 12 shams). […] The pups underwent permanent ligation and sham surgeries followed by 3 h of EEG recording each, as described in methods (total pups=92 of which ligates P7=29, P10=24 and P12=27 and sham P7=5, P10=4 and P12=3; see Table 2). From the ligated group of pups (total n=80), the ligated-control pups also underwent 3 h EEG recordings to evaluate natural progression of ischemic seizure burden over the duration of treatment efficacy evaluated in this study (total pups n/n=26/80, P7=8, P10=9 and P12=9). […] Since the severity of stroke-injury and seizure varies between pups, the baseline EEG of each pup served as an important internal control. Additionally, since the exact time-point of onset for ischemia in human neonates is not known and may not be a single massive event, the 1 h of non-treatment also served as an important delay expected in the treatment of neonatal seizures that are detected hours after stroke in humans.
Surgical procedure for ischemic insult and electrode implantation. Animals were anesthetized with 2% isoflurane. The right common carotid artery was permanently double-ligated with 6-0 surgisilk and the outer skin closed with 6-0 monofilament nylon to induce ischemia (i.e.; ischemia was induced by unilateral common carotid ligation alone. Unlike other rat models commonly used for neonatal stroke, no global hypoxia is needed to induce acute ischemic seizures). Since the ligated carotid is not transected in our model, the intact pulsating carotid artery with silk ligatures can lead to reperfusion over time in this model. The constrictive efficacy (which drops cerebral perfusion to 40% or less) of the silk ligatures is known to diminish, due to the loss of their tensile strength in-vivo against the pulsating artery as a function of time. […] The animals were then implanted with three sub-dermal EEG electrodes (1 recording, 1 reference, and 1 ground) on the skull overlying the parietal cortex using bregma as a reference. Scalp wire electrodes made for sub-dermal use in humans (IVES EEG; Model # SWE-L25-MA, USA) were implanted, sub-dermally fixed with adhesive, in the pups. […] In this study, the recording and reference electrodes were implanted less than 1 cm apart. Pups were then allowed to recover from anesthesia in a 36° C. isothermal chamber for 3 h recording of video-EEG (FIG. 12). At the end of the recording session, the pups were returned to the dams after removal of the sub-dermal electrodes and application of local anesthetic medication.
In vivo synchronous video-EEG recording. […] Data acquisition was done using PAL-8400 software with synchronous video capture (Pinnacle Technology Inc.). […] The files were stored in .EDF format and scored in real time using the review and scoring software package.

[3] = test system: CD1 pups with unilateral carotid ligation (ischemic seizures); conditions: for latency to the 1st-detected seizure: drug given IP immediately after ligation
[4] = test system: HIE seizures; conditions: neonates, cited from earlier work
[5] = test system: KCC2; assay: Western blot of KCC2 expression, ipsilateral normalized to contralateral hemisphere, post-ligation; type: in vivo, mouse
Description: Western blot at 3 h and 24 h post-ligation. All animals were anesthetized with chloral hydrate (90 mg/ml; IP) before being transcardially perfused. The whole brains of P7 and P10 pups were harvested at either 3 h or 24 h post-ligation, and were frozen as ipsilateral and contralateral hemisphere. The brains were stored in −80° C. until further use. Homogenized whole brain lysates were suspended in cell lysis buffer with 10% protease/phosphatase inhibitor cocktail. Total protein concentrations were quantified through Bradford Assay (Bio-Rad) at 570 nm wavelength, and the samples were diluted for 50 ug of protein at 20 ul of loading volume for gel electrophoresis.
Samples were run on 4-20% gradient 1.5 mm 15 wells SDS gels (Invitrogen) for 100-120 min with 130V, and were transferred onto nitrocellulose membranes for overnight wet-transfer for minimum of 18 hours at 30V. After the transfer, the nitrocellulose membranes underwent 1 h blocking step in odyssey buffer, before overnight incubation in primary antibodies: rabbit α-KCC2 (1:1000, Millipore; Cat. No. 07-432); rabbit α-NKCC1 (1:500, Millipore, Cat. No. AB3560P); mouse α-actin (1:10000, LI-COR Biosciences, Cat. No. 926-42214). On the next day, nitrocellulose membranes were washed with TBS containing tween detergent, and then were incubated in […] secondaries for 1 h (1:5000 for both goat α-mouse 680LT and goat α-rabbit 800CW, LI-COR Biosciences). Chemiluminescent protein bands were analyzed using the Odyssey infrared imaging system 2.1 (LI-COR Biosciences). The optical density of each protein sample was normalized to the actin bands run on each lane for internal control. The expression levels of the proteins of interest in ipsilateral hemispheres were normalized to the same in contralateral hemispheres for each pup. The human brain was recently shown to express two splice variants of NKCC1 (a and b) and the NKCC1 probe used in this study and all previous studies referenced here can only detect the NKCC1a isoform because the targeted epitope site of this probe overlaps with exon 21 that is spliced in the dominant isoform NKCC1b. A reliable pan-NKCC1 probe is not currently available.
A smaller sample of naïve age-matched controls (n=8, 4 each at P8 and P11, equal sexes) was run with the 24 h WB data (brains harvested at P8 and P11, i.e.; 24 h after P7 and P10 ligations). […] This pilot established that contralateral hemispheres were ideal controls for normalization of KCC2 and NKCC1 expression in ipsilateral injured hemispheres for this study similar to previously reported conclusions in another ischemia model.

[6] = adult mouse, 0.5 mg/kg IP, cited from earlier work
[7] = test system: ischemic seizures; assay: CLP290 in the neonatal ischemic seizure model, 3 h EEG (Example 3); conditions: 20 mg/kg, n=4, vs vehicle (HPCD)
Description: Arrow heads indicate time of 1 hourly drug injections from start of the 3 h recording.

Compound: CCCCNc1cc(C(=O)O)cc(S(N)(=O)=O)c1Oc1ccccc1 [BTN, bumetanide]
- half-life ([1]; rodents): < 30 min and ~30 min
- effect of adjunct BTN on PB-efficacy ([2]; P7): did not improve PB-efficacy
- anti-seizure effect on total time spent seizing on EEG ([2]; P7, PB 25 mg/kg at 1 h, BTN 0.1-0.2 mg/kg at 2 h post-ligation): failed to have any significant anti-seizure effect
- effect of adjunct BTN on PB-efficacy ([2]; P10): PB-induced seizure suppression was lost
- effect of adjunct BTN on PB-efficacy ([2]; P12): failed to act as an effective adjuvant
- electrographic seizure scores after follow-on BTN ([2]; any age (P7, P10, P12)): did not add any significant therapeutic benefit
- adjunct anti-seizure effect of BTN given 1 h after PB ([3]; P10, ANA12+PB treated pups, BTN 0.1-0.2 mg/kg IP, 3rd h): significantly blunted PB-efficacy by increasing the seizure burden
- efficacy for HIE seizures ([4]; clinical trial terminated): inefficacy
- safety finding [4]: ototoxicity

Compound: O=C(Nc1ccccc1C(=O)NC1CCCCNC1=O)c1cc2ccccc2s1 (stereo not drawn) [ANA12, N-[2-[[(Hexahydro-2-oxo-1H-azepin-3-yl)amino]carbonyl]phenyl] benzo[b]thiophene-2-carboxamide]
- effect on post-ischemic degradation of KCC2 expression ([5]; 3 h post-ischemia): underwent degradation of KCC2
- downregulation of KCC2 expression ([5]; P7, 3 h post-ischemia): 15-20%
- KCC2 degradation compared to the contralateral hemisphere ([5]; P7, 24 h post-ischemia): 15-18%
- effect on post-ischemic degradation of KCC2 expression ([5]; P7 and P10, 24 h post-ischemia): failed to prevent the post-ischemic KCC2 degradation
- KCC2 degradation compared to the contralateral hemisphere ([5]; P10, 24 h post-ischemia): ~12%
- brain concentration ([6]; 0.5 h): 400 nM
- brain concentration ([6]; 6 h): 10 nM
- latency to the 1st-detected seizure ([3]; P7): 202.3 ± 38.8 s
- post-treatment mortality rate vs vehicle (Fisher's exact test) ([3]; P7 p=0.58, P10 p=1.00): did not show a statistical significance
- anti-seizure effect on EEG seizure burden ([3]; P7 pups): did not have any anti-seizure effect
- age- and sex-dependent seizure susceptibility to ischemic seizures ([3]; P7 vs P10, baseline seizure burden): not altered
- latency to the 1st-detected seizure ([3]; P10): 245.8 ± 39.8 s
- anti-seizure effect on EEG seizure burden ([3]; P10 pups): did not have any anti-seizure effect

Compound: O=C1N=C(N2CCCCN2)S/C1=C\c1ccc(F)cc1OC(=O)N1CCCC1 [CLP290]
- anti-seizure activity alone [7]: can act independently as an anti-seizure agent

Compound: CCC1(c2ccccc2)C(=O)NC(=O)NC1=O [PB, phenobarbital]
- half-life ([1]; immature rodents): ~900 min
- reduction of seizure burden ([2]; P10): 61%
- reduction of seizure burden ([2]; P12): 64%
- percent PB seizure suppression over baseline ([3]; P10 pups, ANA12 2.5 mg/kg IP after ligation (or none), PB 25 mg/kg IP at 1 h, 2nd h vs baseline EEG): 68%
